Experimental data from PubChem BioAssay (NCI).
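Where inhibition never reached the appropriate level, the endpoint shown equals the highest concentration tested. Otherwise, values were interpolated linearly from a five-concentration, 48-hour dose response in 96-well plates. GI50 is the concentration that inhibits growth by half. TGI: total growth inhibition.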

Key:
Assay in all cases: DTP human tumour cell line panel, 48 h; in the data active = GI50 below about 0.43 µM; inactive = the rest
[1] = system: KM12 colon
[2] = system: OVCAR-5 ovarian
[3] = system: SR leukemia
[4] = system: CAKI-1 renal
[5] = system: HCT-15 colon
[6] = system: UACC-257 melanoma
[7] = system: OVCAR-8 ovarian
[8] = system: MCF7 breast
[9] = system: SN12C renal
[10] = system: MOLT-4 leukemia
[11] = system: TK-10 renal
[12] = system: HCC-2998 colon
[13] = system: UACC-62 melanoma
[14] = system: RXF 393 renal
[15] = system: OVCAR-4 ovarian
[16] = system: DU-145 prostate
[17] = system: HCT-116 colon
[18] = system: SF-295 CNS
[19] = system: LOX IMVI melanoma
[20] = system: SK-MEL-28 melanoma
[21] = system: K-562 leukemia
[22] = system: T-47D breast
[23] = system: SF-268 CNS
[24] = system: SF-539 CNS
[25] = system: ACHN renal
[26] = system: NCI-H23 lung
[27] = system: A498 renal
[28] = system: A549 NSCLC
[29] = system: MDA-MB-231 breast
[30] = system: EKVX NSCLC
[31] = system: IGROV1 ovarian
[32] = system: CCRF-CEM leukemia
[33] = system: SK-OV-3 ovarian
[34] = system: HOP-62 NSCLC
[35] = system: SNB-19 CNS
[36] = system: NCI-H522 lung
[37] = system: SW-620 colon
[38] = system: U251 CNS
[39] = system: SK-MEL-2 melanoma
[40] = system: PC-3 prostate
[41] = system: 786-0 renal
[42] = system: M14 melanoma
[43] = system: HS 578T breast
[44] = system: BT-549 breast
[45] = system: HL-60(TB) leukemia
[46] = system: NCI/ADR-RES ovarian
[47] = system: UO-31 renal
[48] = system: MALME-3M melanoma
[49] = system: HOP-92 NSCLC
[50] = system: SK-MEL-5 melanoma
[51] = system: RPMI-8226 leukemia
[52] = system: SNB-75 CNS
[53] = system: NCI-H460 lung
[54] = system: OVCAR-3 ovarian
[55] = system: NCI-H226 lung
[56] = system: COLO 205 colon
[57] = system: MDA-MB-435
[58] = system: HT29 colon

COCC(C(=O)OC1C/C=C/C=C/C(=O)OC(C(C)C(O)C(C)CCC(OC(=O)C(C)N(C)C)C(C)C(OC(C)=O)C(C)/C=C/N(C)C=O)C/C=C/C(OC)CC(C)C/C=C(\C)C(OC)CCC(C)C(O)C1C)N(C)C (centres undefined)
0.0358 µM: TGI [20]
0.0877 µM: TGI [11]
0.000156 µM: TGI [16]
0.000845 µM: TGI [41]
0.007 µM: TGI [4]
0.00194 µM: TGI [5]
0.162 µM: TGI [2]
0.00144 µM: TGI [50]
0.0231 µM: TGI [52]
0.169 µM: TGI [47]
0.0077 µM: TGI [51]
> 0.201 µM: TGI [10]
0.00436 µM: TGI [53]
0.000552 µM: TGI [46]
0.156 µM: TGI [28]
0.0915 µM: TGI [44]
0.00191 µM: TGI [54]
0.111 µM: TGI [35]
0.00161 µM: TGI [23]
0.0177 µM: TGI [14]
> 1 µM: TGI [6] | TGI [22] | TGI [37] | TGI [40]
0.00341 µM: TGI [3]
0.105 µM: TGI [9]
0.0144 µM: TGI [31]
0.00377 µM: TGI [19]
0.00697 µM: TGI [42]
0.06 µM: TGI [8]
> 0.281 µM: TGI [15]
active: GI50 [1] < 0.0001 µM | GI50 [2] < 0.0001 µM | GI50 [3] < 0.0001 µM | GI50 [4] < 0.0001 µM | GI50 [5] < 0.0001 µM | GI50 [6] < 0.0001 µM | GI50 [7] < 0.0001 µM | GI50 [8] < 0.0001 µM | GI50 [9] < 0.0001 µM | GI50 [10] < 0.0001 µM | GI50 [11] 0.0158 µM | GI50 [12] < 0.0001 µM | GI50 [13] < 0.0001 µM | GI50 [14] < 0.0001 µM | GI50 [15] 0.00537 µM | GI50 [16] < 0.0001 µM | GI50 [17] < 0.0001 µM | GI50 [18] < 0.0001 µM | GI50 [19] < 0.0001 µM | GI50 [20] < 0.0001 µM | GI50 [21] < 0.0001 µM | GI50 [22] 0.0479 µM | GI50 [23] < 0.0001 µM | GI50 [24] < 0.0001 µM | GI50 [25] 0.000173 µM | GI50 [26] < 0.0001 µM | GI50 [27] < 0.0001 µM | GI50 [28] < 0.0001 µM | GI50 [29] < 0.0001 µM | GI50 [30] < 0.0001 µM | GI50 [31] < 0.0001 µM | GI50 [32] < 0.0001 µM | GI50 [33] < 0.0001 µM | GI50 [34] < 0.0001 µM | GI50 [35] < 0.0001 µM | GI50 [36] < 0.0001 µM | GI50 [37] < 0.0001 µM | GI50 [38] < 0.0001 µM | GI50 [39] < 0.0001 µM | GI50 [40] < 0.0001 µM | GI50 [41] < 0.0001 µM | GI50 [42] < 0.0001 µM | GI50 [43] < 0.0001 µM | GI50 [44] 0.00677 µM | GI50 [45] < 0.0001 µM | GI50 [46] < 0.0001 µM | GI50 [47] 0.00104 µM | GI50 [48] < 0.0001 µM | GI50 [49] 0.00145 µM | GI50 [50] < 0.0001 µM | GI50 [51] < 0.0001 µM | GI50 [52] < 0.0001 µM | GI50 [53] < 0.0001 µM | GI50 [54] < 0.0001 µM
0.0225 µM: TGI [48]
0.237 µM: TGI [12]
0.00687 µM: TGI [17]
0.00774 µM: TGI [39]
0.00136 µM: TGI [29]
> 0.666 µM: TGI [26]
0.116 µM: TGI [21]
0.0164 µM: TGI [33]
0.0139 µM: TGI [32]
0.0013 µM: TGI [34]
0.154 µM: TGI [38]
0.024 µM: TGI [49]
> 0.393 µM: TGI [25]
0.0275 µM: TGI [30]
0.000461 µM: TGI [13]
< 0.0001 µM: TGI [1] | TGI [18] | TGI [24] | TGI [27] | TGI [36] | TGI [43] | TGI [45]

COc1ccc(COCC[C@H](C)OC2OC(CO)C(O)C(O)C2O)cc1 (some centres undefined)
> 100 µM: TGI [1] | TGI [2] | TGI [3] | TGI [4] | TGI [5] | TGI [6] | TGI [7] | TGI [8] | TGI [55] | TGI [9] | TGI [10] | TGI [11] | TGI [12] | TGI [13] | TGI [56] | TGI [14] | TGI [15] | TGI [16] | TGI [17] | TGI [18] | TGI [19] | TGI [20] | TGI [21] | TGI [22] | TGI [23] | TGI [24] | TGI [25] | TGI [26] | TGI [27] | TGI [28] | TGI [29] | TGI [30] | TGI [31] | TGI [32] | TGI [33] | TGI [57] | TGI [34] | TGI [35] | TGI [36] | TGI [37] | TGI [38] | TGI [39] | TGI [40] | TGI [41] | TGI [58] | TGI [42] | TGI [43] | TGI [44] | TGI [45] | TGI [46] | TGI [47] | TGI [49] | TGI [50] | TGI [51] | TGI [52] | TGI [53] | TGI [54]
